{
  "source": "patent US11730746B2",
  "about": "“17beta-heterocyclyl-digitalis like compounds for the treatment of heart failure” (priority 2018, dated 2023)",
  "key": {"[1]": {"molecular_target": "T1, CYP19 (CYP450, 19; aromatase) (Homo sapiens, UniProt P11511)", "T1 construct": "Eurofins 118040", "T1 sequence (P11511 whole entry)": "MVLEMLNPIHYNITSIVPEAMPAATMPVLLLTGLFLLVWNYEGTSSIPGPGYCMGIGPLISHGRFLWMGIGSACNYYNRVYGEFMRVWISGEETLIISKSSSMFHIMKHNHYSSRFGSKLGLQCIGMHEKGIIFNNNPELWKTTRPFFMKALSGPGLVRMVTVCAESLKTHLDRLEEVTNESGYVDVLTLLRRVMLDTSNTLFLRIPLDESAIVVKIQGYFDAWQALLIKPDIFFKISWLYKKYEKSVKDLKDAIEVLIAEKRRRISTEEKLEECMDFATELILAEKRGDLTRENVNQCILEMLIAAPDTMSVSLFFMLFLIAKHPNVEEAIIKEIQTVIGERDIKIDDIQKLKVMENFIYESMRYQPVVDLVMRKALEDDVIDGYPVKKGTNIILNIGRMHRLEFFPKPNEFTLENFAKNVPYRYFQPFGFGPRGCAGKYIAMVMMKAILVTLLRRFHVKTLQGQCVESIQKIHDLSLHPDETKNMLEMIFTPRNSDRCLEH", "experiment": "Eurofins panel 118040", "format": "biochemical", "conditions": "crude membrane preparations", "procedure": "(§1) Radioligand binding to a panel of receptors was carried out by Eurofins on crude membrane preparations according to published procedures and by using appropriate reference standard (Eurofins, CVie 101 compound code PT #1207859, study #AB76416, quote #68407-1, for Cvie Therapeutics Limited, Taiwan (R.OC.) on Mar. 5, 2017). CVie 101 was tested at the concentration of 10 μM. No significant interaction was documented, except for Sodium Channel, site 2 from rat (cat #279510), where a significant response (≥50%) was noted (Table 7)."}, "[2]": {"molecular_target": "T2, Adrenergic β1 (Homo sapiens, UniProt P08588)", "T2 construct": "Eurofins 204010; host or cells: crude membrane preparation", "T2 sequence (P08588 whole entry)": "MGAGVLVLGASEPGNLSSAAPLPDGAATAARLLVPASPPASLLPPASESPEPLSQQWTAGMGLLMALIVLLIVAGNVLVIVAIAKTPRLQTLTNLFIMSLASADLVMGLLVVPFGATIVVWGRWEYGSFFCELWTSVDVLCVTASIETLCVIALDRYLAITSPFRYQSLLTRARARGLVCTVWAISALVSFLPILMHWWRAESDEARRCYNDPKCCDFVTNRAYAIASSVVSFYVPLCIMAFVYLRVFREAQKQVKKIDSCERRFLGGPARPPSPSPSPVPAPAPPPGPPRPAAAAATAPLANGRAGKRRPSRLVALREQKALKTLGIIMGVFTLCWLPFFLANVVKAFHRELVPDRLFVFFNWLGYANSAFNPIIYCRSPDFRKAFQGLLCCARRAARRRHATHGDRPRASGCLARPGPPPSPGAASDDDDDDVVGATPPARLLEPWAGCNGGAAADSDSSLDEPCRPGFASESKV", "experiment": "Receptor binding 204010", "procedure": "as §1"}, "[3]": {"molecular_target": "T3, Angiotensin AT1 (Homo sapiens, UniProt P30556)", "T3 construct": "Eurofins 210030; host or cells: crude membrane preparation", "T3 sequence (P30556 whole entry)": "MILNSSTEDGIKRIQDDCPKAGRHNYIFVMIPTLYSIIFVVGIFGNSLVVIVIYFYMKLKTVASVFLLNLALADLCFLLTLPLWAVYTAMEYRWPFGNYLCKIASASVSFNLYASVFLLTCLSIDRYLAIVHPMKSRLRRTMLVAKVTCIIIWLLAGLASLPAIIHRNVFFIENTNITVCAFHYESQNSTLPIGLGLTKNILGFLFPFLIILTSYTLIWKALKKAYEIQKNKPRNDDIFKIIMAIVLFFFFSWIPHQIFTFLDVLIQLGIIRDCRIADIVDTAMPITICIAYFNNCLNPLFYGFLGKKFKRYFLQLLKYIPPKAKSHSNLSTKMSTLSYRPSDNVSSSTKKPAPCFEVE", "experiment": "Receptor binding 210030", "procedure": "as §1"}, "[4]": {"test_system": "Calcium Channel L-type, Dihydropyridine", "experiment": "Receptor binding 214600", "set-up": "species or system rat", "conditions": "10 μM", "procedure": "as §1"}},
  "data": [
    {"compound": "C[C@]12CC[C@H](O)C[C@H]1CCC1C2CC[C@]2(C)[C@@H](c3c[nH]cn3)CC[C@]12O", "note": "(stereo partly drawn) [CVie 101, 3β-hydroxy-5β-10β-methyl-13β-methyl-14β-hydroxy-17β-(imidazol-4-yl)androstane]", "values": [
      {"measurement": "inhibition at 10 µM", "setting": "[1]", "value": 36, "unit": "%"},
      {"measurement": "inhibition at 10 µM", "setting": "[2]", "value": -4, "unit": "%"},
      {"measurement": "inhibition at 10 µM", "setting": "[3]", "value": 12, "unit": "%"},
      {"measurement": "% inhib", "setting": "[4]", "value": "−8", "unit": "%"}
    ]}
  ]
}
